Data from US20260055161A1, “PSCA CAR-T CELLS” (Regeneron Pharmaceuticals, Inc., priority 2018, published 2026).

Experiments:
[1] = system: serum cytokines and chemokines (IP-10, TNF-α, MCP-1, MIP-1α, MIP-1β); test: peripheral cytokine profiles over time; format: in vivo, human
Experimental: Cohort 3 (1.25×10^6 cells/kg) was the initial starting cohort for cell dose escalation decisions in Part 1 when PSCA CAR-T cells are administered with rimiducid. Cohorts of 3 subjects were treated with escalating doses of PSCA CAR-T cells on Day 0 with a fixed, single dose of rimiducid (0.4 mg/kg) on Day 7. The doses of PSCA CAR-T cells are detailed in FIG. 8.

cells = test: AP1903 amount needed in vitro for effective signaling of cells; format: cell-based
[2] = healthy volunteers; cited from earlier work
peripheral lymphocytes = settings: 1 patient with increased IL-7 and IL-15 levels after lymphodepletion
Experimental: FIG. 8 provides a table showing patient demographics and clinical characteristics. *Cytoxan 1 g/m^2 by IV infusion on Day −3; † PSCA (copies per 10^6 copies hACTB) was measured at screening.

SMILES | serum cytokines (IP-10, TNF-α) ([1]; 8 patients that received rimiducid after CAR-T cells) | chemokine levels (MCP-1, MIP-1α, MIP-1β) ([1]; many patients, after rim infusion) | amount needed in vitro for effective signaling of cells (cells) [nM] | amount needed for effective signaling, equivalent (cells; MW: 1412 Da) [µg/L] | safety [2] | peripheral lymphocyte count, of the starting level (peripheral lymphocytes) [%]
CC[C@H](C(=O)N1CCCC[C@H]1C(=O)O[C@H](CCc1ccc(OC)c(OC)c1)c1cccc(OCC(=O)NCCNC(=O)COc2cccc([C@@H](CCc3ccc(OC)c(OC)c3)OC(=O)[C@@H]3CCCCN3C(=O)[C@@H](CC)c3cc(OC)c(OC)c(OC)c3)c2)c1)c1cc(OC)c(OC)c(OC)c1 (relative stereo) [rimiducid, 2-Piperidinecarboxylic acid, 1-[(2S)-1-oxo-2-(3,4,5-trimethoxyphenyl)butyl]-, 1,2-ethanediylbis[imino(2-oxo-2,1-ethanediyl)oxy-3,1-phenylene[(1R)-3-(3,4-dimethoxyphenyl)propylidene]]ester, [2S-[1(R*),2R*[S*[S*[1(R*),2R*]]]]]-(9C1)] | all had elevated cytokines (IP-10, TNF-α) correlated with cell expansion | Increased chemokine levels | 10 to 100 | 14 to 140 | safe | –
O=P1(N(CCCl)CCCl)NCCCO1 (stereo not drawn) [cyclophosphamide] | – | – | – | – | – | 31
